Laboratory results taken from patent US20210352899A1, “COMPOSITIONS COMPRISING PYRIDINE CARBOXYLATE HERBICIDES AND FATTY ACID AND LIPID SYNTHESIS INHIBITOR HERBICIDES” (Corteva Agriscience LLC, priority 2018, published 2021).

How the values were obtained:
Format in all cases: in vivo
[1] = tested on: Brassica napus (spring rape); test: Greenhouse postemergence herbicidal effect, BRSNN
Excerpt: (§1) Seeds of the desired test plant species were planted in a 90:10% v/v (volume/volume) mixture of PRO-MIX® BX (Premier Tech Horticulture, Quakertown, Pa., USA) and PROFILE® GREENS GRADE™ (Profile Products LLC, Buffalo Grove, Ill., USA) planting mixture, which typically has a pH of 5.2 to 6.2 and an organic matter content of at least 50 percent, in plastic pots with a surface area of 103.2 square centimeters (cm^2). In some aspects, to help ensure good germination and healthy plants, a fungicide treatment and/or other chemical or physical treatment was applied. The plants were grown for 7-36 days (d) in a greenhouse with an approximate 14-hour (h) photoperiod which was maintained at about 23° C. during the day and 22° C. during the night. Nutrients and water were added on a regular basis and supplemental lighting was provided with overhead metal halide 1000-Watt lamps as necessary. The plants were employed for testing when they reached the second or third true leaf stage.
(§2) Emulsifiable concentrates of each pyridine carboxylate herbicide (Compound A or Compound B) were prepared at 100 grams acid equivalent per liter (g ae/L). The emulsifiable concentrates also included a safener, cloquintocet-mexyl, at 120 grams active ingredient per liter (g ai/L). An aliquot of each emulsifiable concentrate was placed in a 25 mL glass vial and diluted with an aqueous mixture of 1.25% (v/v) ACTIROB® B esterified rapeseed oil (Bayer Crop Science, Research Triangle Park, N.C., USA) or MSO® Concentrate with LECI-TECH® methylated soybean oil (Loveland Products, Loveland, Colo., USA) to obtain concentrated stock solutions at the highest application rate for each herbicide, based upon a 12 milliliter (mL) application volume at a rate of 187 liters per hectare (L/ha). The concentrated stock solutions were further diluted with an aqueous mixture of 1.25% v/v ACTIROB® B or MSO® Concentrate with LECI-TECH® to obtain stock solutions at reduced application rates for each herbicide. Spray solutions of the herbicide combinations (Compound A or Compound B plus the FA/LSI herbicide) were prepared by adding weighed amounts or aliquots of the FA/LSI herbicide to the stock solutions of Compound A or Compound B to form 12-mL spray solutions in two-way combinations.
(§3) The spray solutions were applied to the plant material with an overhead Mandel track sprayer equipped with 8002E nozzles calibrated to deliver 187 L/ha over an application area of 0.503 square meters (m^2) at a spray height of 18 inches (43 centimeters (cm)) above the average plant canopy. Control plants were sprayed in the same manner with the solvent blank. All pyridine carboxylate herbicide (component a) application rates are given as “g ae/ha” and all FA/LSI herbicide (component b) application rates are given as “g ai/ha.”
(§4) The treated plants and control plants were placed in a greenhouse as described above and watered by sub-irrigation to prevent wash-off of the test compounds. After 20-22 d, the condition of the test plants as compared with that of the control plants was determined visually and scored on a scale of 0 to 100 percent where 0 corresponds to no injury and 100 corresponds to complete kill.

[2] = tested on: Polygonum convolvulus (wild buckwheat); test: Greenhouse postemergence herbicidal effect, POLCO
Excerpt: as §1, §2, §3, §4

[3] = tested on: Sinapis arvensis (wild mustard); test: Greenhouse postemergence herbicidal effect, SINAR
Excerpt: as §1, §2, §3, §4

[4] = tested on: Salsola kali (Russian thistle); test: Greenhouse postemergence herbicidal effect, SASKR
Excerpt: as §1, §2, §3, §4

Kochia scoparia (kochia) = test: Greenhouse postemergence herbicidal effect, KCHSC
Excerpt: as §1, §2, §3, §4

[5] = tested on: Amaranthus retroflexus (pigweed); test: Greenhouse postemergence herbicidal effect, AMARE
Excerpt: as §1, §2, §3, §4

[6] = tested on: Chenopodium album L. (common lambsquarters); test: Greenhouse postemergence herbicidal effect, CHEAL
Excerpt: as §1, §2, §3, §4

[7] = tested on: Matricaria chamomilla (wild chamomile); test: Greenhouse postemergence herbicidal effect, MATCH
Excerpt: as §1, §2, §3, §4

[8] = tested on: Triticum aestivum (spring wheat); test: Greenhouse postemergence crop phytotoxicity, TRZAS
Excerpt: as §1, §2, §3, §4

[9] = tested on: Hordeum vulgare (spring barley); test: Greenhouse postemergence crop phytotoxicity, HORVS
Excerpt: as §1, §2, §3, §4

[10] = tested on: Viola tricolor (wild pansy); test: Greenhouse postemergence herbicidal effect, VIOTR
Excerpt: as §1
(§5) Emulsifiable concentrates of each pyridine carboxylate herbicide (Compound A or Compound B) were prepared at 100 grams acid equivalent per liter (g ae/L). The emulsifiable concentrates also included a safener, cloquintocet-mexyl, at 120 grams active ingredient per liter (g ai/L). […]
as §4

[11] = tested on: Stellaria media (chickweed); test: Greenhouse postemergence herbicidal effect, STEME
Excerpt: as §1, §5, §4

[12] = tested on: Lolium multiflorum (Italian ryegrass); test: Greenhouse postemergence herbicidal effect, LOLMU
Excerpt: as §1, §5, §4

[13] = tested on: Echinochloa crus-galli (barnyard grass); test: Greenhouse postemergence herbicidal effect, ECHCG
Excerpt: as §1, §5, §4

[14] = tested on: Digitaria sanguinalis (large crabgrass); test: Greenhouse postemergence herbicidal effect, DIGSA
Excerpt: as §1, §5, §4

[15] = tested on: Cirsium arvense (Canada thistle); test: Greenhouse postemergence herbicidal effect, CIRAR
Excerpt: as §1, §2, §3, §4

[16] = tested on: Setaria faberi (giant foxtail); test: Greenhouse postemergence herbicidal effect, SETFA
Excerpt: as §1, §5, §4

Glycine max (soybean) = test: Greenhouse postemergence herbicidal effect, GLXMA
Excerpt: as §1, §5, §4

[17] = Compound A 0, Benfuresate 150 g/ha
[18] = Compound A 7.5 g/ha, Benfuresate 0
[19] = Compound A 7.5 g/ha, Esprocarb 0
[20] = Compound A 7.5 g/ha, Prosulfocarb 0
[21] = Compound A 7.5 g/ha, Thiobencarb 0
[22] = Compound A 10 g/ha, Benfuresate 0
[23] = Compound A 10 g/ha, Esprocarb 0
[24] = Compound A 10 g/ha, Prosulfocarb 0
[25] = Compound A 10 g/ha, Thiobencarb 0
[26] = Compound A 0, Esprocarb 420 g/ha
[27] = Compound A 0, Prosulfocarb 250 g/ha
[28] = Compound A 0, Thiobencarb 1120 g/ha

CCS(=O)(=O)Oc1ccc2c(c1)C(C)(C)CO2 [Benfuresate, benfuresate, reference compound]
% visual injury, Obs [1, 17]: 5%
% visual injury, Obs [2, 17]: 0%
% visual injury, Obs [3, 17]: 0%
% visual injury, Obs [4, 17]: 0%
% visual injury, Obs (Kochia scoparia (kochia); [17]): 0%
% visual injury, Obs [5, 17]: 10%
% visual injury, Obs [6, 17]: 0%
% visual injury, Obs [7, 17]: 0%

N#CCOC(=O)c1nc(-c2ccc3cc[nH]c3c2F)c(F)c(N)c1Cl [Compound A, cyanomethyl 4-amino-3-chloro-5-fluoro-6-(7-fluoro-1H-indol-6-yl)pyridine-2-carboxylate]
% visual injury, Obs [1, 18]: 55%
% visual injury, Obs [1, 19]: 55%
% visual injury, Obs [1, 20]: 73%
% visual injury, Obs [1, 21]: 55%
% visual injury, Obs [1, 22]: 60%
% visual injury, Obs [1, 23]: 70%
% visual injury, Obs [1, 24]: 83%
% visual injury, Obs [1, 25]: 60%
% visual injury, Obs [2, 18]: 70%
% visual injury, Obs [2, 20]: 75%
% visual injury, Obs [2, 21]: 70%
% visual injury, Obs [2, 22]: 78%
% visual injury, Obs [2, 24]: 70%
% visual injury, Obs [2, 25]: 78%
% visual injury, Obs [3, 18]: 88%
% visual injury, Obs [3, 19]: 85%
% visual injury, Obs [3, 21]: 88%
% visual injury, Obs [3, 22]: 92%
% visual injury, Obs [3, 23]: 90%
% visual injury, Obs [3, 25]: 92%
% visual injury, Obs [4, 18]: 45%
% visual injury, Obs [4, 19]: 38%
% visual injury, Obs [4, 21]: 45%
% visual injury, Obs [4, 22]: 60%
% visual injury, Obs [4, 23]: 63%
% visual injury, Obs [4, 25]: 60%
% visual injury, Obs (Kochia scoparia (kochia); [18]): 50%
% visual injury, Obs (Kochia scoparia (kochia); [19]): 50%
% visual injury, Obs (Kochia scoparia (kochia); [20]): 60%
% visual injury, Obs (Kochia scoparia (kochia); [21]): 50%
% visual injury, Obs (Kochia scoparia (kochia); [22]): 58%
% visual injury, Obs (Kochia scoparia (kochia); [23]): 55%
% visual injury, Obs (Kochia scoparia (kochia); [24]): 65%
% visual injury, Obs (Kochia scoparia (kochia); [25]): 58%
% visual injury, Obs [5, 18]: 100%
% visual injury, Obs [5, 19]: 70%
% visual injury, Obs [5, 21]: 100%
% visual injury, Obs [5, 22]: 100%
% visual injury, Obs [5, 23]: 98%
% visual injury, Obs [5, 25]: 100%
% visual injury, Obs [6, 18]: 70%
% visual injury, Obs [6, 19]: 60%
% visual injury, Obs [6, 20]: 97%
% visual injury, Obs [6, 21]: 70%
% visual injury, Obs [6, 22]: 83%
% visual injury, Obs [6, 23]: 90%
% visual injury, Obs [6, 24]: 93%
% visual injury, Obs [6, 25]: 83%
% visual injury, Obs [7, 18]: 13%
% visual injury, Obs [7, 19]: 0%
% visual injury, Obs [7, 21]: 13%
% visual injury, Obs [7, 22]: 15%
% visual injury, Obs [7, 23]: 33%
% visual injury, Obs [7, 25]: 15%
% visual injury, Obs [8, 18]: 0%
% visual injury, Obs [8, 19]: 0%
% visual injury, Obs [8, 21]: 0%
% visual injury, Obs [8, 22]: 0%
% visual injury, Obs [8, 23]: 0%
% visual injury, Obs [8, 25]: 0%
% visual injury, Obs [9, 18]: 8%
% visual injury, Obs [9, 19]: 0%
% visual injury, Obs [9, 21]: 8%
% visual injury, Obs [9, 22]: 0%
% visual injury, Obs [9, 23]: 0%
% visual injury, Obs [9, 25]: 0%
% visual injury, Obs [10, 20]: 10%
% visual injury, Obs [10, 24]: 18%
% visual injury, Obs [11, 20]: 100%
% visual injury, Obs [11, 24]: 97%
% visual injury, Obs [12, 20]: 0%
% visual injury, Obs [12, 24]: 0%
% visual injury, Obs [13, 20]: 73%
% visual injury, Obs [13, 24]: 78%
% visual injury, Obs [14, 20]: 45%
% visual injury, Obs [14, 24]: 25%
% visual injury, Obs [15, 19]: 10%
% visual injury, Obs [15, 20]: 23%
% visual injury, Obs [15, 23]: 23%
% visual injury, Obs [15, 24]: 20%
% visual injury, Obs [16, 20]: 70%
% visual injury, Obs [16, 24]: 70%
% visual injury, Obs (Glycine max (soybean); [20]): 93%
% visual injury, Obs (Glycine max (soybean); [24]): 95%

CCN(C(=O)SCc1ccccc1)C(C)C(C)C (stereo not drawn) [Esprocarb, esprocarb, reference compound]
% visual injury, Obs [1, 26]: 0%
% visual injury, Obs [3, 26]: 0%
% visual injury, Obs [4, 26]: 0%
% visual injury, Obs (Kochia scoparia (kochia); [26]): 0%
% visual injury, Obs [5, 26]: 15%
% visual injury, Obs [6, 26]: 0%
% visual injury, Obs [7, 26]: 5%
% visual injury, Obs [15, 26]: 0%

CCCN(CCC)C(=O)SCc1ccccc1 [Prosulfocarb, prosulfocarb, reference compound]
% visual injury, Obs [1, 27]: 0%
% visual injury, Obs [2, 27]: 0%
% visual injury, Obs (Kochia scoparia (kochia); [27]): 0%
% visual injury, Obs [6, 27]: 0%
% visual injury, Obs [10, 27]: 0%
% visual injury, Obs [11, 27]: 0%
% visual injury, Obs [12, 27]: 0%
% visual injury, Obs [13, 27]: 0%
% visual injury, Obs [14, 27]: 0%
% visual injury, Obs [15, 27]: 0%
% visual injury, Obs [16, 27]: 0%
% visual injury, Obs (Glycine max (soybean); [27]): 0%

CCN(CC)C(=O)SCc1ccc(Cl)cc1 [Thiobencarb, thiobencarb, reference compound]
% visual injury, Obs [1, 28]: 10%
% visual injury, Obs [2, 28]: 0%
% visual injury, Obs [3, 28]: 5%
% visual injury, Obs [4, 28]: 0%
% visual injury, Obs (Kochia scoparia (kochia); [28]): 0%
% visual injury, Obs [5, 28]: 10%
% visual injury, Obs [6, 28]: 0%
% visual injury, Obs [7, 28]: 15%
